Measurements taken from PMC7519074, “Polar functional group-containing glycolipid CD1d ligands modulate cytokine-biasing responses and prevent experimental colitis” (Scientific Reports, 2020).
≈ marks a conversion by molar mass, not a printed value. Entries after “also recorded” stand apart in the source; their conditions may differ. Blank lines part the entries; values can stand above or below the molecule they belong to.

Tests used:
Water solubility = assay type: physicochemical
[1] = Plasma pharmacokinetic profile in mice after ip dosing; assay type: in vivo, C57BL/6J mice; details: male, C57BL/6, mouse, 100 ug/kg, 100 μg/kg ip, mice n = 6
Procedure: The pharmacokinetic study was approved by The Institutional Animal Care and Use Committee of Ono Pharmaceutical Co., Ltd. and was performed in accordance with the ethics criteria contained in the animal welfare bylaws of the Committee. The pharmacokinetics of 3 were studied following intraperitoneal administration. The 10 μg/mL dosing solution, which contained DMSO/Phosphate buffered saline = 1/9, was administered intraperitoneally to six male C57BL/6 mice (Charles River Laboratories, Japan, Inc.). Blood samples were collected into heparinized syringes at designated times and centrifuged to obtain the plasma samples. The plasma samples were assayed after protein precipitation by acetonitrile/ethanol (70/30, v/v), followed by HPLC/MS/MS analysis. Plasma concentration–time data were analyzed by noncompartmental methods.

mCD1d-Fc fusion protein [2] = biological target: T1, mCD1d-Fc fusion protein (Mus musculus, UniProt P11609); set-up: method as in PMID 27648599; details: previously reported; cited from earlier work
T1 construct: Ig (mouse immunoglobulin fusion partner); purchased BD Biosciences
T1 sequence (P11609 22-305 limits assumed): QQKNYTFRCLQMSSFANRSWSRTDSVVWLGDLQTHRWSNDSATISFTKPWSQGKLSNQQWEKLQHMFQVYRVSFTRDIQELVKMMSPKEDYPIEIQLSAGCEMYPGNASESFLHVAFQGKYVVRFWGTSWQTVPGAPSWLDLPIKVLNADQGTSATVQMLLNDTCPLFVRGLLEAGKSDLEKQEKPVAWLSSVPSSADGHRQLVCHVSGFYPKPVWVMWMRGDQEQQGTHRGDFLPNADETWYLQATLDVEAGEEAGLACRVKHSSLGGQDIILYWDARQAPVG
T1 sequence (P01887 21-119 partner): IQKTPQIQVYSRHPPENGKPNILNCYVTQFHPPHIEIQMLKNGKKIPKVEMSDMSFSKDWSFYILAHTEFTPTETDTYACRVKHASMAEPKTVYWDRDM

[3] = Metabolic stability, human liver microsome; assay type: in vitro ADME; details: for half-life: liver microsomes, read-out: metabolic stability (liver microsome, T1/2) human
[4] = Metabolic stability, rat liver microsome; assay type: in vitro ADME; details: for half-life: liver microsomes, read-out: metabolic stability (liver microsome, T1/2) rat
mouse splenocytes = experiment: Cytokine secretion assay using mouse splenocyte; assay type: cell-based, C57BL/6 mice; set-up: IFN-γ production / IL-4 production / IL-17A production: unit not given here; details: for IFN-γ production / IL-17A production / IL-4 production: 1 nM ligand, 48 h; for IFN-γ production: Fig. S2a; for IL-17A production: Fig. S2c; for Relative ratio IL-4/IFN-γ of cytokine production compared to α-GalCer / Relative ratio IL-17A/IFN-γ of cytokine production compared to α-GalCer: 1 nM; for Relative ratio IL-4/IFN-γ of cytokine production compared to α-GalCer: Fig. 5a; for Relative ratio IL-17A/IFN-γ of cytokine production compared to α-GalCer: Fig. 5b; for cytokine polarization in words: from relative ratios, Fig. 5; for IL-4 production: Fig. S2b
Procedure: Spleen cell suspensions (from C57BL/6 mice) were prepared in complete medium (RPMI 1,640 media supplemented with 10% FBS and 1% penicillin–streptomycin) and seeded into 96-well plates (6.0 × 10^5 cells/well). Lipid ligands were added, and the mixture were incubated at 37 °C for 48 h. IFN-γ, IL-4 and IL-17A release were measured with an ELISA kit (Affymetrix).

DSS-induced colitis [5] = experiment: DSS-induced colitis model of ulcerative colitis; assay type: in vivo; details: for DAI scores (disease activity index) versus PBS control / colon length (colon shortening) versus PBS control: 100 μg/kg ip on day 4, 2.0% DSS day 1-7, read on day 8
Procedure: DSS treatment causes progressive weight loss, diarrhea and colon inflammation with a significant reduction in colon length, which leads to increases in the clinical scores of disease symptoms (DAI: disease activity index). C57BL/6 mice (n = 12 per group) were continuously treated with 2.0% DSS in their drinking water from day 1 to day 7. The mice were injected intraperitoneally with 100 μg/kg of the derivatives or PBS (control) on day 4. On day 8, the DAI scores and colon lengths of the mice administered the derivatives were compared with those of the mice administered PBS (control). […] Colon shortening is a feature of colon inflammation in the DSS-induced model. In the model, the colon length of healthy mice is about 8 cm (DSS (−)), whereas that of mice upon DSS treatment is about 4 cm (DSS + PBS) as shown in Fig. 7b. […] In this study, we selected the intraperitoneal injection as the administration method of lipid ligands, and used DAI scores and colon length to investigate the protective effects of derivatives against colitis. On the other hand, the difference in the administration method of immunomodulators, such as lipid ligands, might have a significant impact on their efficacy[46],[47]. In addition, the cytokine profiles in the colon upon ligand treatment could also provide useful information regarding their efficacy. Further research is currently being conducted into the effects of administration methods on efficacy and the examination of colon cytokine profiles.
The animal experiments using murine DSS model were conducted in accordance with the guidelines of Keio university institutional animal care and use committee. Specific pathogen-free C57BL/6 mice were purchased from Japan Clea (Tokyo, Japan). All mice were housed under specific pathogen-free conditions in microisolator cages in an animal facility, and male mice (7 weeks of age) were used. DSS (dextran sulfate sodium) was added to the water supply provided to the animals at a concentration of 2.0% (wt/vol) for days 1–7. Derivatives 2 and 3 were first dissolved in DMSO at 100 μg/mL and then diluted in PBS solution. The derivatives (100 μg/kg in 200 μL of solution) were injected intraperitoneally on day 4 after the induction of colitis. Control animals received 200 μL of PBS solution containing the same concentration of DMSO. Mice were sacrificed on day 8 after DSS administration. Intestinal tissues were removed and opened longitudinally. The length of the colon was measured after exclusion of cecum. The disease activity index (DAI), defined as stool blood, stool form and weight loss, and the length of the colon were used to analyze the therapeutic benefits of derivatives 2 and 3.

DSS-induced colitis [6] = system: DSS-induced colitis; set-up: method as in PMID 15674111; details: cited from earlier work
mCD1d-Fc fusion protein [7] = biological target: T1, mCD1d-Fc fusion protein; experiment: Antigen presenting cell (APC)-free assay for lipid binding to mCD1d-Fc; IL-2 release by 2E10 NKT hybridoma cells; assay type: cell-based; set-up: unit not given here; details: ligand 100 nM; mean ± SEM; Fig. 3c, d
Procedure: NKT hybridoma 2E10 cells were cultured in RPMI-1640 (NACALAI TESQUE, INC) supplemented with 10% fetal bovine serum (FBS; Biowest), and 1% penicillin–streptomycin (Gibco).
For this assay, 96-well microplates (Bio-one 96-well cell culture plate, Greiner) were coated with mouse CD1d:Ig Fusion protein (BD Biosciences) (0.25 μg/well) in PBS at 37 °C for 24 h. […] After washing, 2E10 NKT hybridoma cells (2.5 × 10^5 cells/well) were added and cultured at 37 °C for 48 h. IL-2 release was measured with an ELISA kit (Affymetrix).

[8] = Table S1, dash = below the detection limit (< 5 μM) according to b25

Compound: CCCCCCCCCCCCCC[C@@H](O)[C@@H](O)[C@H](CO[C@H]1O[C@H](CO)[C@H](O)[C@H](O)[C@H]1O)NC(=O)CCCCCCCCCCCNC(=O)c1ccccc1 [compound 3]
solubility (Water solubility; detection limit 5 μM): 7.2 µM (≈ 5.62 µg/mL)
Cmax [1]: 92.8 ng/mL
Tmax [1]: 1 h
half-life [1]: 5.2 h
AUC ([1]; ip): 466 ng·h/mL
cytokine production / agonistic activity relative to α-GalCer, in words (mCD1d-Fc fusion protein [2]): higher levels of cytokine production relative to that caused by α-GalCer; also recorded: higher agonistic activity than α-GalCer
metabolic stability in words [3]: suboptimal metabolic property for human liver microsome
half-life [3]: < 0.25 h
metabolic stability in words [4]: resistant to rat microsomal metabolism
half-life [4]: 2.82 h
IFN-γ production (mouse splenocytes): 514 ± 79
IL-17A production (mouse splenocytes): 1651 ± 127
Relative ratio IL-4/IFN-γ of cytokine production compared to α-GalCer (mouse splenocytes): 10.2 ± 1.6
Relative ratio IL-17A/IFN-γ of cytokine production compared to α-GalCer (mouse splenocytes): 18.0 ± 1.7
cytokine polarization in words (mouse splenocytes): IL-4- and IL-17A-biasing properties
DAI scores (disease activity index) versus PBS control (DSS-induced colitis [5]): significant improvement in the DAI scores
colon length (colon shortening) versus PBS control (DSS-induced colitis [5]): significantly prevented the colon shortening

Compound: CCCCCCCCCCCCCC[C@@H](O)[C@@H](O)[C@H](CO[C@H]1O[C@H](CO)[C@H](O)[C@H](O)[C@H]1O)NC(=O)CCCCCCCCCCCNC(=O)CCCCCCCNC(=O)CC [compound 2]
solubility (Water solubility; [8]): < 5 µM
cytokine production / agonistic activity relative to α-GalCer, in words (mCD1d-Fc fusion protein [2]): higher levels of cytokine production relative to that caused by α-GalCer
half-life [3]: < 0.25 h
metabolic stability in words [4]: resistant to rat microsomal metabolism
half-life [4]: 1.07 h
IFN-γ production (mouse splenocytes): 9,467 ± 362
IL-4 production (mouse splenocytes): 593 ± 65
IL-17A production (mouse splenocytes): 5,179 ± 154
Relative ratio IL-4/IFN-γ of cytokine production compared to α-GalCer (mouse splenocytes): 3.15 ± 0.46
Relative ratio IL-17A/IFN-γ of cytokine production compared to α-GalCer (mouse splenocytes): 2.98 ± 0.03
cytokine polarization in words (mouse splenocytes): relatively less selective cytokine responses
mice died by day 8 (DSS-induced colitis [5]; 100 μg/kg ip on day 4, 2.0% DSS day 1-7, n = 12 per group): Two out of twelve
DAI scores (disease activity index) versus PBS control (DSS-induced colitis [5]): did not significantly alter the DAI scores
colon length (colon shortening) versus PBS control (DSS-induced colitis [5]): significantly prevented the colon shortening

Compound: CCCCCCCCCCCCCCCCCCCCCCCC(=O)N[C@@H](COC1OC(CO)C(O)C(O)C1O)[C@H](O)[C@H](O)CCCCC (stereo partly drawn) [OCH]
efficacy in the murine DSS model, in words (DSS-induced colitis [6]): effective in the murine DSS model

IL-2 production (mCD1d-Fc fusion protein [7]): 274 ± 53
solubility (Water solubility; [8]): < 5 µM
solubility (Water solubility; detection limit 5 μM): < 5 µM
Compound: CCCCCCCCCCCCCCCCCCCCCCCCCC(=O)N[C@@H](CO[C@H]1O[C@H](CO)[C@H](O)[C@H](O)[C@H]1O)[C@H](O)[C@H](O)CCCCCCCCCCCCCC [α-GalCer, α-galactosyl ceramide, reference compound]
IFN-γ production (mouse splenocytes): 12,297 ± 61
IL-4 production (mouse splenocytes): 247 ± 14
IL-17A production (mouse splenocytes): 2,258 ± 242
efficacy in the murine DSS model, in words (DSS-induced colitis [6]): effective in the murine DSS model
